Assay results as given in patent EP0099122A2, “Compositions comprising pepstatin and an histamine H2-receptor antagonist having an enhanced antiulcer activity” (Bristol-Myers Company, priority 1982, dated 1984).
Read-outs that look alike come from different tables or passages of the source.

What was measured:
[1] = system: Gastric Fistula Rat; assay: Gastric antisecretory activity in the Gastric Fistula Rat; assay type: in vivo, Long Evans rats; settings: sc; for ED50: Rattus norvegicus, read-out: ED50 sc
Procedure: Determination of Gastric Antisecretory Activity in the Gastric Fistula Rat
Male Long Evans rats weighing about 240-260 grams at the time of cannula implantation are used. […] The fistula components are designed and the operative procedure is carried out exactly as described in the above reference. Post operatively the animals are individually housed in solid bottom cages with sawdust and are allowed food and water ad libitum throughout the entire recovery period. Animals are not used for test purposes for at least 15 days after the operative procedure.
The animals are fasted but allowed water ad libitum for 20 hours before the testing procedure is to begin. Immediately prior to collection, the cannula is opened and the. stomach washed gently with 30-40 mL of warm saline or distilled water to remove any residual contents. The catheter is then screwed into the cannula in place of the plugging screw and the rat is placed in a clear plastic rectangular cage measuring 40 cm long, 15 cm wide and 13 cm high. The bottom of the cage has a slit approximately 1.5 cm wide and 25 cm long running down the center to accommodate the catheter which hangs through it. In this way the rat is not restricted and can move -freely about the cage during collection periods. The remainder of the assay is carried out as described by Ridley et al. [Research Comm. Chem. Path.
Gastric secretions collected during the first hour after washing the stomach are discarded as they may be contaminated. For oral evaluation, the catheter is then removed from the cannula and replaced with the plugging screw. Water (2 mL/kg) is administered orally via gastric intubation and the animal is returned to the cage for 45 minutes. After this time the plugging screw is removed and replaced with a catheter to which a small plastic vial has been attached to collect the gastric secretions. A two hour sample is collected (this represents the control secretion), the catheter removed and.replaced with the plugging screw. The test drug is now administered orally in a volume of 2 mL/kg via gastric intubation. Forty-five minutes later the plugging screw is again removed, replaced with the catheter attached to a small plastic vial and another 2 hour sample is collected. The secretions in the second sample are compared to those of the control sample in order to determine thee effects of the test drug.
When test compounds are to be evaluated parenterally, the animal is injected ip or sc with the test compound vehicle in a volume of 2 mL/kg immediately after discarding the initial 60 minute collection. A two hour sample is collected (control secretion) and the animals are injected either ip or sc with the test compound in a volume of 2 mL/kg. An additional two hour sample is collected and its secretions are compared to those of the control period to determing drug effects.
The samples are centrifuged in a graduated tube for volume determination. Titratable acidity is measured by titrating a one mL sample to pH 7.0 with 0.02N NaOH, using an Autoburet and an electrometric pH meter (Radiometer). Titratable acid output is calculated in microequivalents by multiplying the volume in milliliters by the acid concentration in milliequivalents per liter.
Results are expressed as percent inhibition relative to control readings. Dose response curves are constructed and ED50 values are calculated by regression analyses. At least three rats are used at each dosage level and a minimum of three dosage levels are utilized for determination of a dose response curve.

[2] = system: Heidenhain Pouch Dog; assay: Gastric antisecretory activity in the Heidenhain Pouch Dog; assay type: in vivo, dogs; settings: 95% confidence limits in parentheses; for ED50: Canis lupus familiaris
Procedure: Determination of Gastric Antisecretory […] in the Heidenhain Pouch Dog Prior to surgery, hematology and blood chemistry profiles are obtained and an assessment made as to the general health of selected female dogs. Dogs are vaccinated with Tissue […]-Moore) and housed in general animal quarters for four weeks' observation so incipient diseases may become apparent. Dogs are fasted with water ad libitum 24 hours prior to surgery. […] Subsequent anesthesia is maintained with methoxy- flurane (Pitman-Moore). A mid-line linea alba incision from xiphoid to umbilicus provides good exposure and ease of closure. The stomach is pulled up into the operative fields the greater curvature stretched out at multiple points and clamps placed along the selected line of incision. The pouch is made from the corpus of the stomach so that true parietal cell juice is obtained. About 30% of the corpus volume is resected. The cannula is made of light-weight, biologically-inert material such as nylon or Delrin with dimensions and attachments after DeVito and […] fJ. Appl. Physiol., 14, 138 (1959)]. Post operatively, dogs are medicated with antibiotics and an analgesic. They are allowed 2-3 months for recovery. Experiments are carried out in the following way: […] The dogs are placed in a sling and a saphenous vein cannulated for drug administration. Histamine as the base (100 μg/kg/hr) and chlorpheniramine maleate (0.25 mg/kg/hr) are infused continuously (in a volume of 6 mL/hr) with a Harvard infusion pump. Ninety minutes' infusion are allowed for the dogs to reach a steady state of acid output. At this time the drug or normal saline (control) is administered concomitantly with the secretagogue in a volume of 0.5 mL/kg over a 30 second period. When oral studies are to be carried out, the drug is administered via gastric gavage in a volume of 5 mL/kg. Infusion of the secretagogue is continued and 15 minute samples of the gastric juice are taken for 4.5 hours. Each sample is measured to the nearest 0.5 mL and titratable acidity is determined by titrating a 1 mL sample to pH 7.0 with 0.2N NaOH, using an Autoburet and an electrometric pH meter '(Radiometer). Titratable acid output is calculated in microequivalents by multiplying the volume in milliliters by the acid concentration in milliequivalents per liter. Results are expressed as percent inhibition relative to control readings. Dose response curves are constructed and ED50 values are calculated by regression analyses. From 3 to 5 dogs are used at each dose level and a minimum of three dosage levels are utilized for determination of a dose response curve.

[3] = system: gastric acid secretion; assay: Inhibition of gastric acid secretion relative to cimetidine, various animal studies; assay type: in vivo; settings: inhibitors of gastric acid secretion, oral route
Procedure: Based on this potency difference, the oral dosage of the compounds of Examples 1 and 9 would be about 1/20 to 1/25 that of cimetidine, thus reducing the expected incidence of side effects. The usual oral dosage of cimetidine is 300 mg, given four times a day, while the usual dosage of the compounds of Examples 1 and 9 is about 12-15 mg, given four times a day. It was an object of this invention to further reduce the necessary dosage of the compounds of Formula I by the concomitant administration of a peptic activity- inhibitory amount of pepstatin. As will be shown below, such concomitant administration provides about a three-fold increase in potency compared with the administration of an equal amount of the compound of Formula I alone, thus permitting a further three-fold reduction in the dosage of the compound of Formula I.

[4] = system: HCl-Induced Formation of Gastric Lesions; assay: HCl-induced gastric erosions in rats (modified method of Robert et al.); assay type: in vivo, Long Evans rats; settings: compound alone versus compound plus pepstatin (20 mg/kg po)
Procedure: (§1) In the tests described below, gastric erosions produced in rats by the oral instillation of 1.0 mL of 0.75N HC1 were compared with those in rats which had been pretreated with the most preferred compound of Formula I (of Example 1) or with that compound and pepstatin. Comparison tests utilizing pretreatment with the newer commercial product, ranitidine, and with ranitidine and pepstatin, are also shown. Ranitidine is about 4 and 6 times as potent as cimetidine as an inhibitor of gastric acid secretion by the oral route in the rat and dog, respectively.
A modification of the method of Robert et al., [Gastroenterology, 77, 433-443 (1979)] was employed to produce gastric erosions. Adult male, Long Evans rats weighing 280-300 g (Blue Spruce Farms, Alton, New York) were used. The animals were individually caged and food and water were removed 24 and 18 hours, respectively, prior to testing. On the following day, the test compound was administered orally to the animals 30 minutes before 1.0 mL of 0.75N HC1 was instilled into the stomach by gavage. Animals treated with the combination of the test compound and pepstatin received the test compound 30 minutes before, and a fixed amount of pepstatin (20 mg/kg po) 10 minutes before, the hydrochloric acid was administered. […] One hour after receiving the HC1 solution, the animals were sacrificed with an intraperitoneal injection of 0.2 mL of T-61®, a euthanasia solution (National Laboratories Corp.).
The stomachs were removed from the animals, cut along the greater curvature, opened, rinsed with saline and pinned out flat in a standard position for macroscopic examination and scoring of erosions. The stomachs were photographed with a Polaroid® Close Up camera (Polaroid Corporation) and scoring was determined from the photographs. For scoring purposes, only those erosions with a minimum length of 1 mm were considered. The severity of gastric ulceration was defined for each animal as the sum of the maximum continuous lengths (in mm) of the erosions satisfying the above criteria. Percent inhibition of lesion formation was defined as
(mm erosion, vehicle control') - (mm erosion, test agent) 100. (mm erosion, vehicle control)
Data were analyzed using the t-test for unpaired data' and ED50 values were calculated from the dose response data using probit analysis [Finney, Probit Analysis, 3rd ed., University Press, Cambridge, England (1971)].
The compound of Example 1 and ranitidine (synthesized by the Medicinal Chemistry Research Department of Bristol Laboratories, Division of.Bristol-Myers Company) were dissolved in one equivalent of HC1 and the pH adjusted to 5.5 with NaOH. A suspension of pepstatin (Banyu Pharmaceutical Co. Ltd.) in water was made by homogenizing the compound with a few drops of Tween-80® (Atlas Chemical Industries). Each of these compounds were administered orally by gavage in a volume of 2 mL/kg.

[5] = system: gastric acid secretion; assay: Inhibition of gastric acid secretion relative to cimetidine, oral route, rat; assay type: in vivo
Procedure: as §1

[6] = system: gastric acid secretion; assay: Inhibition of gastric acid secretion relative to cimetidine, oral route, dog; assay type: in vivo
Procedure: as §1

[7] = 95% confidence limits in parentheses

| SMILES | ED50 [1, 7] | Potency Ratio [cimetidine = 1.0] [1, 7] | further results |
| --- | --- | --- | --- |
| CN/C(=N/CCSCc1nc[nH]c1C)NC#N [Cimetidine, cimetidine, reference compound] | – | – | ED50 [1]: 3.8 µmol/kg; ED50 ([2]; INTRAVENOUS): 2.18 µmol/kg; ED50 ([2]; ORAL): 3.29 µmol/kg |
| CN(C)Cc1ccc(CSCCNc2c(N)c(=O)c2=O)o1 [Example 2, 1-Amino-2-{2-[(5-dimethylaminomethyl-2-furyl)methylthio]ethyl-amino}cyclobutene-3,4-dione] | < 1 µmol/kg | >4 | Potency Ratio [cimetidine = 1.0] ([2]; INTRAVENOUS): ~20 |
| CN(C)Cc1ccc(CSCCNc2c(N)c(=O)c2=O)s1 [Example 3, 1-Amino-2-{2-[(5-dimethylaminomethyl-2-thienyl)methylthio]ethyl-amino}cyclobutene-3,4-dione] | ~4 µmol/kg | ~1 | – |
| CN(C)Cc1cccc(OCCCNc2c(N)c(=O)c2=O)c1 [Example 9, 1-Amino-2-[3-(3-dimethylaminomethylphenoxy)propylamino]cyclobutene-3,4-dione] | 0.055 µmol/kg | 61 (20-204) | times more potent than cimetidine [3]: 20-25; Potency Ratio [cimetidine = 1.0] ([2]; INTRAVENOUS): ~40; Potency Ratio [cimetidine = 1.0] ([2]; ORAL): ~20 |
| Nc1c(NCCCOc2cccc(CN3CCCCCC3)c2)c(=O)c1=O [Example 10i, 1-amino-2-[3-(3-hexamethyleneiminomethylphenoxy)propylamino]-cyclobutene-3,4-dione] | 0.08 µmol/kg | 48 (21-97) | Potency Ratio [cimetidine = 1.0] ([2]; INTRAVENOUS): >40 |
| Nc1c(NCCCOc2cccc(CN3CCCCCCC3)c2)c(=O)c1=O [Example 10j, 1-amino-2-[3-(3-heptamethyleneiminomethylphenoxy)propylamino]-cyclobutene-3,4-dione] | 0.044 µmol/kg | 88 (36-211) | – |
| Nc1c(NCCCOc2cccc(CN3CCCCCCCC3)c2)c(=O)c1=O [Example 10m, 1-amino-2-[3-(3-octamethyleneiminomethylphenoxy)propylamino]-cyclobutene-3,4-dione] | 0.7 µmol/kg | 5.4 (2.1-12) | – |
| CNc1c(NCCCOc2cccc(CN3CCCCC3)c2)c(=O)c1=O [Example 11, 1-Methylamino-2-[3-(3-piperidinomethylphenoxy)propylamino]cyclobutene-3,4-dione] | 0.067 µmol/kg | 50 (15-169) | – |
| O=c1c(NCCCOc2cccc(CN3CCCCC3)c2)c(NCc2cccnc2)c1=O [Example 12, 2-[3-(3-Piperidinomethylphenoxy)propylamino]-l-(3-pyridyl)methyl-aminocyclobutene-3,4-dione] | 0.094 µmol/kg | 44 (22-90) | – |
| C#CCNc1c(NCCCOc2cccc(CN3CCCCC3)c2)c(=O)c1=O [Example 14d] | 0.031 µmol/kg | 124 (62-243) | – |
| CNC(=C[N+](=O)[O-])NCCSCc1ccc(CN(C)C)o1 [Ranitidine, ranitidine] | – | – | Potency Ratio [4]: 1.18; times as potent as cimetidine as an inhibitor of gastric acid secretion [5]: about 4; times as potent as cimetidine as an inhibitor of gastric acid secretion [6]: ~6 |
